Tests used:
Format in all cases: biochemical
Settings in all cases: procedures of Example 14 (TR-FRET)
[1] = target: JNK1 (Homo sapiens (Human), UniProt P45983); assay: JNK1 TR-FRET kinase assay (Example 14)
Method: (§1) 14.3. Active JNK 1, 2 and 3 TR-FRET Assay
(§2) (1) Assay buffer #1 with 0.0025% Tween and 1 mM DTT was prepared using JNK buffer stock solution.
(§3) (2) Assay buffer #2 with 0.025% BSA was prepared using the assay buffer #1.
(§4) (3) Test compound solution preparation: 5× compound solution was prepared using assay buffer #1 with 5% DMSO. The compound solution (10 μl/well) was added to a 384-well plate (Corning, Cat No. 3654).
(§5) (4) aJNK1, 2 or 3 preparation: aJNK stock (100 μg/ml) at −80° C. was thawed on ice and an aJNK (1.6 ng/ml) solution was prepared using assay buffer #2. The aJNK solution (20 μl/well) was added to the plate and the plate was shaken. The enzyme was incubated with the compound at RT for 10 min. (5) ATP/substrate solution preparation: ATP and substrate stocks were thawed on ice. 2.5×ATP/substrate (e.g., 25 μM or 2.5 mM ATP/50 nM EPIW-1) was prepared using assay buffer #1. The ATP/substrate (20 μl/well) was added to the plate and the plate was shaken. The plate was incubated at RT for 15 min. Note: In an exemplary assay, the final ATP concentration was about 1 mM. (6) EDTA preparation: 30 mM EDTA was prepared using 0.5M EDTA stock and assay buffer #1. The EDTA (10 μl/well) was added to the plate to quench the enzyme reaction and the plate was shaken well. (7) Detection reagent preparation: Eu-63 and SA-XL stocks were thawed on ice. 4× Eu-63/SA-XL (2 nM Eu-63/9.4 nM SA-XL) was prepared using JNK detection buffer. The Eu-63/SA-XL solution (20 μl/well) was added to the plate and the plate was shaken. The plate was incubated at RT for 1 hr before reading the plate on LJL using ratiometric method named HTRF.
(§6) 14.4. Coupled JNK 1, 2 and 3 TR-FRET Assay
(§7) (1) Assay buffer with 0.0025% Tween, 0.01% BSA, and 1 mM DTT was prepared using JNK buffer stock solution.
(§8) (2) Test compound solution preparation: 5× compound solution, including EDTA background, was prepared using assay buffer with 5% DMSO. The compound solution (10 μl/well) was added to a 384-well plate (Corning, Cat No. 3654).
(§9) (3) uJNK1,2, or 3 activation reaction preparation: uJNK activation solution was prepared using assay buffer (1.6 ng/ml MKK4, 1.6 ng/ml MKK7, 16 ng/ml uJNK, and 20 uM ATP final). The uJNK activation solution (35 μl/well) was added to the plate, the plate was shaken, and the reaction mixture was incubated with compound at 30° C. for 60 min. (4) c-Jun substrate solution preparation: 50 nM EPIW-1, c-Jun peptide, was prepared using assay buffer (15 nM final). The EPIW-1 solution (15 μl/well) was added to the plate, the plate was shaken and incubated at 30° C. for 60 min. (5) EDTA preparation: 30 mM EDTA was prepared using 0.5M EDTA stock and assay buffer. The EDTA (10 μl/well) was added to the plate to quench the enzyme reaction and the plate was shaken well. (6) Detection reagent preparation: Eu-73 and SA-XL stocks were thawed on ice. 4× Eu-73/SA-XL (2 nM Eu-73/9.4 nM SA-XL) were prepared using JNK detection buffer. The Eu-73/SA-XL solution (20 μl/well) was added to the plate. The plate was shaken and incubated at RT for 1 hr before reading the plate on LJL using ratiometric method named HTRF.

[2] = target: JNK3 (Homo sapiens (Human), UniProt P53779); assay: JNK3 TR-FRET kinase assay (Example 14)
Method: as §1, §2, §3, §4, §5, §6, §7, §8, §9

[3] = target: JNK2 (Homo sapiens (Human), UniProt P45984); assay: JNK2 TR-FRET kinase assay (Example 14)
Method: as §1, §2, §3, §4, §5, §6, §7, §8, §9

Chain of JNK2 (P45984 whole entry, species assumed): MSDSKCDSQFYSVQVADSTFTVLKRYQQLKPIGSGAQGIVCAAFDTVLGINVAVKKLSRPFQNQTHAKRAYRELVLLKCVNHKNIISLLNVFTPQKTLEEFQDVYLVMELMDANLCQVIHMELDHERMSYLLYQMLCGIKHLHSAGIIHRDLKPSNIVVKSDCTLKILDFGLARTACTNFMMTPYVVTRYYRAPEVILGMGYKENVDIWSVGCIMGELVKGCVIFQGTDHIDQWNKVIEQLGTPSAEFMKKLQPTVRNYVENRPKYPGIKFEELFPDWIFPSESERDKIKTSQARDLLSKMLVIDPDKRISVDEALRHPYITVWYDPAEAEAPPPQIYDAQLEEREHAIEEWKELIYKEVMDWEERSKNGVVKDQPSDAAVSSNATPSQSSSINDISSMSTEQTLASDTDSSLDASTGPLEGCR
Chain of JNK1 (P45983 other isoform, or with tags, fused parts or gaps isoform P45983-2, species assumed): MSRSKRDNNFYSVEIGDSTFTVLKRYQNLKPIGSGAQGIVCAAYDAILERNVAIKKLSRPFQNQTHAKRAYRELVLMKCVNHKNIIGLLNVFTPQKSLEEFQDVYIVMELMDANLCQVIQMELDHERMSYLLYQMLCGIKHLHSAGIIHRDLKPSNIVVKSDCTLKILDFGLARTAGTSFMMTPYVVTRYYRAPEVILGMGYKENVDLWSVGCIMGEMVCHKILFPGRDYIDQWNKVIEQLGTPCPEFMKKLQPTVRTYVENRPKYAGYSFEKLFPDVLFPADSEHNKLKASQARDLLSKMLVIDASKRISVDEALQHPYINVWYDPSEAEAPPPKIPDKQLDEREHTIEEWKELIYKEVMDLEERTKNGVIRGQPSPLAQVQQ
Chain of JNK3 (P53779 whole entry, species assumed): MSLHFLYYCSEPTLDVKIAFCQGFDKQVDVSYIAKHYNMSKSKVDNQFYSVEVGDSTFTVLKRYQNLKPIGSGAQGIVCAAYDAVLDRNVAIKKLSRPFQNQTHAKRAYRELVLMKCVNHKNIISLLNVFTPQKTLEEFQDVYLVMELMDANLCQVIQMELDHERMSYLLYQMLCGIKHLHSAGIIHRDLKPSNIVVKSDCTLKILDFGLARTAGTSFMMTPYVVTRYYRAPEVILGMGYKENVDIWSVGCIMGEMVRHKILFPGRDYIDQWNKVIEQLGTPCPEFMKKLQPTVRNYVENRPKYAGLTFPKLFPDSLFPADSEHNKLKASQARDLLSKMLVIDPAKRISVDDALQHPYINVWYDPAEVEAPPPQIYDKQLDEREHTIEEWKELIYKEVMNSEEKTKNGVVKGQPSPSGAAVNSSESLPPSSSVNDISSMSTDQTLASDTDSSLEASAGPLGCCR

Structure (SMILES)	IC50 [1]	IC50 [2]	IC50 [3]
O=C(Cc1cccc2ccccc12)Nc1ccsc1-c1nnco1 [N-(2-(1,3,4-oxadiazol-2-yl)thiophen-3-yl)-2-(naphthalen-1-yl)acetamide]	0.1 to 10 µM	0.1 to 10 µM	> 10 µM
Cc1nc(-c2sccc2NC(=O)Cc2cccc3ccccc23)n(C)n1 [N-(2-(1,3-dimethyl-1H-1,2,4-triazol-5-yl)thiophen-3-yl)-2-(naphthalen-1-yl)acetamide]	> 10 µM	> 10 µM	> 50 µM
Cn1ncnc1-c1sccc1NC(=O)Cc1cccc2ccccc12 [N-(2-(1-methyl-1H-1,2,4-triazol-5-yl)thiophen-3-yl)-2-(naphthalen-1-yl)acetamide]	> 50 µM	> 50 µM	> 50 µM
Cn1ccnc1-c1sccc1NC(=O)Cc1cccc2ccccc12 [N-(2-(1-methyl-1H-imidazol-2-yl)thiophen-3-yl)-2-(naphthalen-1-yl)acetamide]	> 10 µM	> 10 µM	> 50 µM
Cn1ccc(-c2sccc2NC(=O)Cc2cccc3ccccc23)n1 [N-(2-(1-methyl-1H-pyrazol-3-yl)thiophen-3-yl)-2-(naphthalen-1-yl)acetamide]	> 10 µM	> 10 µM	> 50 µM
COc1ccc(CC(=O)Nc2ccsc2-n2cncn2)cc1 [N-(2-(1H-1,2,4-triazol-1-yl)thiophen-3-yl)-2-(4-methoxyphenyl)acetamide]	> 10 µM	> 10 µM	> 50 µM
COc1ccc(CC(=O)Nc2ccsc2-c2ncn[nH]2)cc1 [N-(2-(1H-1,2,4-triazol-5-yl)thiophen-3-yl)-2-(4-methoxyphenyl)acetamide]	0.1 to 10 µM	0.1 to 10 µM	0.1 to 10 µM
O=C(Cc1cccc2ccccc12)Nc1ccsc1-c1ncn[nH]1 [N-(2-(1H-1,2,4-triazol-5-yl)thiophen-3-yl)-2-(naphthalen-1-yl)acetamide]	0.1 to 10 µM	0.1 to 10 µM	0.1 to 10 µM
O=C(Cc1cccc2ncccc12)Nc1ccsc1-c1nnc[nH]1 [N-(2-(1H-1,2,4-triazol-5-yl)thiophen-3-yl)-2-(quinolin-5-yl)acetamide]	0.1 to 10 µM	0.1 to 10 µM	0.1 to 10 µM
O=C(Cc1cccc2ccccc12)Nc1ccsc1-n1ccnc1 [N-(2-(1H-imidazol-1-yl)thiophen-3-yl)2-(naphthalen-1-yl)acetamide]	> 10 µM	0.1 to 10 µM	> 50 µM
O=C(CN1C(=O)CCc2ccccc21)Nc1ccsc1-c1c[nH]cn1 [N-(2-(1H-imidazol-4-yl)thiophen-3-yl)-2-(2-oxo-3,4-dihydroquinolin-1(2H)-yl)acetamide]	0.1 to 10 µM	0.1 to 10 µM	> 10 µM
COc1ccc(CC(=O)Nc2ccsc2-c2c[nH]cn2)cc1 [N-(2-(1H-imidazol-4-yl)thiophen-3-yl)-2-(4-methoxyphenyl)-acetamide]	> 10 µM	> 10 µM	> 50 µM
COc1ccc(CC(=O)Nc2ccsc2-n2cccn2)cc1 [N-(2-(1H-pyrazol-1-yl)thiophen-3-yl)-2-(4-methoxyphenyl)-acetamide]	> 10 µM	> 10 µM	> 50 µM
O=C(Cc1cccc2cnccc12)Nc1ccsc1-c1csc(Cl)n1 [N-(2-(2-chlorothiazol-4-yl)thiophen-3-yl)-2-(isoquinolin-5-yl)acetamide]	0.1 to 10 µM	0.1 to 10 µM	> 10 µM
Cc1nc(-c2sccc2NC(=O)CN2C(=O)CCc3ccccc32)c[nH]1 [N-(2-(2-methyl-1H-imidazol-4-yl)thiophen-3-yl)-2-(2-oxo-3,4-dihydroquinolin-1(2H)-yl)acetamide]	> 10 µM	> 10 µM	> 50 µM

The next lines start with the values.

IC50 [1]	IC50 [2]	IC50 [3]	Structure (SMILES)
0.1 to 10 µM	0.1 to 10 µM	0.1 to 10 µM	COc1ccc(CC(=O)Nc2ccsc2-n2nccn2)cc1 [N-(2-(2H-1,2,3-triazol-2-yl)thiophen-3-yl)-2-(4-methoxyphenyl)acetamide]
0.1 to 10 µM	0.1 to 10 µM	0.1 to 10 µM	COc1ccc(CC(=O)Nc2ccsc2-c2nc(C3CC3)n[nH]2)cc1 [N-(2-(3-cyclopropyl-1H-1,2,4-triazol-5-yl)thiophen-3-yl)-2-(4-methoxyphenyl)acetamide]
0.1 to 10 µM	0.1 to 10 µM	0.1 to 10 µM	CCc1n[nH]c(-c2sccc2NC(=O)Cc2ccc(OC)cc2)n1 [N-(2-(3-ethyl-1H-1,2,4-triazol-5-yl)thiophen-3-yl)-2-(4-methoxyphenyl)acetamide]
0.1 to 10 µM	0.1 to 10 µM	0.1 to 10 µM	Cc1n[nH]c(-c2sccc2NC(=O)Cc2cccc3ccccc23)n1 [N-(2-(3-methyl-1H-1,2,4-triazol-5-yl)thiophen-3-yl)-2-(naphthalen-1-yl)acetamide]
0.1 to 10 µM	0.1 to 10 µM	> 10 µM	COc1ccc(CC(=O)Nc2ccsc2-c2nc(C(C)(C)C)n[nH]2)cc1 [N-(2-(3-tert-butyl-1H-1,2,4-triazol-5-yl)thiophen-3-yl)-2-(4-methoxyphenyl)acetamide]
> 10 µM	> 10 µM	> 50 µM	COc1ccc(CC(=O)Nc2ccsc2-c2nnc(C(C)C)o2)cc1 [N-(2-(5-isopropyl-1,3,4-oxadiazol-2-yl)thiophen-3-yl)-2-(4-methoxyphenyl)acetamide]
0.1 to 10 µM	0.1 to 10 µM	> 10 µM	Cc1nnc(-c2sccc2NC(=O)Cc2cccc3ccccc23)o1 [N-(2-(5-methyl-1,3,4-oxadiazol-2-yl)thiophen-3-yl)-2-(naphthalen-1-yl)acetamide]
< 0.1 µM	0.1 to 10 µM	0.1 to 10 µM	O=C(Cn1c(=O)ccc2cc(F)c(F)cc21)Nc1sccc1-c1ncon1 [N-(3-(1,2,4-oxadiazol-3-yl)thiophen-2-yl)-2-(6,7-difluoro-2-oxoquinolin-1(2H)-yl)acetamide]
0.1 to 10 µM	0.1 to 10 µM	> 50 µM	COCn1nnnc1-c1ccsc1NC(=O)Cc1ccc(OC)cc1 [N-(3-(1-(methoxymethyl)-1H-tetrazol-5-yl)thiophen-2-yl)-2-(4-methoxyphenyl)acetamide]
< 0.1 µM	0.1 to 10 µM	0.1 to 10 µM	O=C(CN1C(=O)CCc2ccccc21)Nc1sccc1-c1ncn[nH]1 [N-(3-(1H-1,2,4-triazol-5-yl)thiophen-2-yl)-2-(2-oxo-3,4-dihydroquinolin-1(2H)-yl)acetamide]
0.1 to 10 µM	0.1 to 10 µM	0.1 to 10 µM	N#Cc1csc(NC(=O)Cn2c(=O)ccc3cc(C(F)(F)F)ccc32)c1-n1nnc2ccccc21 [N-(3-(1H-benzo[d][1,2,3]triazol-1-yl)-4-cyanothiophen-2-yl)-2-(2-oxo-6-(trifluoromethyl)quinolin-1(2H)-yl)acetamide]
> 50 µM	> 50 µM	> 50 µM	COCn1nnc(-c2ccsc2NC(=O)Cc2ccc(OC)cc2)n1 [N-(3-(2-(methoxymethyl)-2H-tetrazol-5-yl)thiophen-2-yl)-2-(4-methoxyphenyl)acetamide]
0.1 to 10 µM	0.1 to 10 µM	0.1 to 10 µM	N#Cc1csc(NC(=O)CN2C(=O)CCc3ncccc32)c1-c1nc2ccccc2s1 [N-(3-(benzo[d]thiazol-2-yl)-4-cyanothiophen-2-yl)-2-(2-oxo-3,4-dihydro-1,5-naphthyridin-1(2H)-yl)acetamide]
0.1 to 10 µM	0.1 to 10 µM	> 10 µM	Cc1csc(NC(=O)Cc2cccc3cnccc23)c1-c1nc2ccccc2s1 [N-(3-(benzo[d]thiazol-2-yl)-4-methylthiophen-2-yl)-2-(isoquinolin-5-yl)acetamide]

Source: US9796706B2, “Inhibitors of Jun N-terminal kinase” (IMAGO PHARMACEUTICALS, INC., priority 2009, dated 2017)
